Laboratory results from patent US9745334B2, “Cytotoxic-drug delivering molecules targeting HIV (CDM-Hs), cytotoxic activity against the human immunodeficiency virus and methods of use” (YALE UNIVERSITY, priority 2012, dated 2017).

Key:
CHO-env (gp120+) cells = assay: Cell cytotoxicity assay (CellTiter Glo), CHO-env; assay type: cell-based; settings: 14 h; at 310 nM and 1.85 μM
Procedure: (§1) Wild-type HIV-1 env expressing CHO-env cells and CHO-pSv (env negative isogenic control) were a gift from Dr. Edward Berger (NIH), however, they were developed by Nicholas and coworkers.^55 CHO-pSv cells were grown in DMEM base media described below while CHO-env cells were grown in selection medium, which consists of base medium containing 0.25 μM methotrexate (MTX, Aldrich). *Note: Decrease in envelope expression in CHO-env cells was observed upon several passages and it is recommended to maintain low passage stocks of cells in liquid nitrogen.
(§2) Cell Cytotoxicity Assay (CellTiter Glo)
(§3) ***Note: all incubations and dilutions in CHO-culture media (+MTX for CHO-env)
(§4) ***All incubations performed in 96-well plates (clear bottom, black sides; Costar#3603) in triplicate at 37° C., 5% CO2 in moist environment.
(§5) Confluent (˜80%) T-75 flasks of CHO-env and/or CHO-pSv were washed once with DPBS (3 mL), detached, counted and then centrifuged. […]
(§6) Serial dilutions (1/6) of molecules made in empty 96-well plates using multichannel pipette, and then transferred to plates containing seeded cells (50 μL). […] Luminescence monitored on Biotek Synergy 2 microplate reader.
(§7) % cytotoxicity above background calculated by the following formulas: % CDC=[100−((sample−max kill)/(no molecule−max kill))*100] […]

CHO-pSV (gp120−) cells = assay: Cell cytotoxicity assay (CellTiter Glo), CHO-pSV; assay type: cell-based; settings: 14 h incubation; concentrations as high as 67 μM
Procedure: as §1, §2, §3, §4, §5, §6, §7

SMILES: COc1cccc2c1C(=O)c1c(O)c3c(c(O)c1C2=O)C[C@@](O)(C(=O)CO)C[C@@H]3O[C@H]1C[C@H](N)[C@H](O)[C@H](C)O1 [doxorubicin]
- toxicity at low concentrations (CHO-env (gp120+) cells): no toxicity was observed
- non-specific cytotoxicity (CHO-pSV (gp120−) cells): non-specifically toxic
